Source: patent US20040116397A1, “Agents and methods for the prevention of initial onset of cancers, the treatment of cancers, and the recurrence of existing cancers” (priority 2003, published 2004)
Entries after “also recorded” stand apart in the source; their conditions may differ.

How the values were obtained:
[1] = test system: DU145 cells; test: Cell growth, CELLTITER96 AQUEOUS ONE tetrazolium assay; type: cell-based
Description: (§1) Referring to FIG. 1, actively growing LNCaP and DU145 cells were plated in 96-well plates at a density of 10^5 cells per well. After 24 hours in a 37° C. incubator with 5% CO2, the cells were treated with the indicated concentration of 2-ME. Control cells received only the vehicle (DMSO). Cell growth was monitored every 24 hours using the […]96 AQUEOUS ONE solution assay containing a tetrazolium compound (Promega Corporation, Madison, Wis.).
(§2) The assay is based on the principle that actively growing cells generate reducing equivalents such as NADH that is necessary for the cells to reduce the tetrazolium compound to formazan product that is detected by measuring the absorbance at […]. Increase in absorbance indicates cell viability.
(§3) The data reflected in FIG. 1 represents an average of five replicates and the experiment was conducted twice. […] It is known that there are differences of AR and p53 between these two cell types.

[2] = test system: prostate cancer cell lines (LNCaP, DU145) and brain and/or nervous system cancer cell line (DAOY); test: Cell proliferation and induction of apoptosis, 2-ME versus 16-ES; type: cell-based
Text: Building on these findings, further experiments have helped to elucidate the structural bases for 2-ME's molecular efficacy. A number of experiments have been conducted using 2-ME and 16-epiestriol (hereinafter “16-ES”), an analogue of 2-ME that lacks the methoxy group at the second position. In a multitude of experiments, using prostate cancer cell lines (both androgen-dependent (LNCaP), and androgen-independent (DU145) cells), and a brain and/or nervous system cancer cell line (DAOY), the present inventors have studied the effects of 2-ME and 16-ES on cell proliferation and the induction of apoptosis, in a number of ways. […] Further, it also indicates efficacy of a series of compounds with various moieties at the second position in the treatment of cancer. […] Thus, the present inventors now propose a method of synthesizing a number of analogues of 2-ME that will exceed the efficacy of 2-ME in the prevention of cancer.

[3] = test system: epidermal hyperplasia; test: Mouse two-stage carcinogenesis model (DMBA/TPA), skin hyperplasia; type: in vivo; conditions: 4 weeks, Sencar mice
Text: To test the efficacy of 2-ME in preventing or reversing neoplastic progression, the present inventors have conducted investigations using the well-established mouse two-stage carcinogenesis model. This model was developed to study the complex multistep process of epidermal carcinogenesis since initiation and promotion are involved in the development of cancer in humans. […] Although treatment of mouse skin with a single large dose of DMBA can induce papillomas in about 10-20 weeks and carcinomas in about 20-60 weeks, repetitive doses are necessary to induce tumors at lower levels. No tumors are formed at a sub-threshold dose of DMBA. However, if TPA is applied to the mice initiated with a sub threshold dose of DMBA, multiple papillomas appear after a short latency period, followed by squamous cell carcinomas after a longer period. Tumors cannot be induced with repetitive treatment of TPA in the absence of initiation. Such phenotypic changes produced in the epidermis by TPA treatment are critical for neoplastic progression. One such characteristic feature of neoplastic progression is hyperplasia.
Female Sencar mice were divided into 7 groups each with 5 animals. […]

[4] = test system: LNCaP cells; test: Cell growth, CELLTITER96 AQUEOUS ONE tetrazolium assay; type: cell-based; conditions: for inhibition of growth: 72 hours
Description: as §1, §2, §3
Cells were treated with either eugenol (0.25, 0.5, 0.75 or 1 mM) or 2-ME (0.5, 1, 2 or 3 mM) or both (0.25, 0.5, 0.75 or 1 mM of eugenol along with 0.5 mM of 2-ME). Cell growth was measured following 72 hours of treatment as described above.

[5] = test system: endothelial cell; conditions: background, reference (3); cited from earlier work
[6] = test system: DU145 cells; test: Cell cycle distribution by flow cytometric analysis (Krishan stain); type: cell-based; conditions: DU145, 3 μM, 16 hours
Description: Referring to FIG. 3, since 2-ME inhibited the growth of LNCaP and DU145 cells, the present inventors set out to examine whether 2-ME treatment altered the distribution of cells during cell cycle progression. Logarithmically growing DU145 cells were plated in 60 mm dishes as described above at a density of 10^5 cells per dish. After 24 hours of growth at 37° C. in an incubator with 5% CO2, half the dishes were treated with 3 μM of 2-ME and the other half was left untreated. Cells were observed every 24 hours for morphological changes following treatment with 2-ME. After 16 hours of incubation cells were harvested by trypsinization and the cell pellet was resuspended in 1 ml of Krishan stain and subjected to flow cytometric analysis at the Flow Cytometry facility of the University of Colorado Comprehensive Cancer Center, Denver, Colo. […] This could be due to alteration of expression and/or activities of cell cycle regulatory proteins in the G2/M phase.

[7] = test system: p53 in DU145 cells; test: p53 EMSA of whole cell extracts; type: cell-based; conditions: DU145 extract, 3 μM, 48 h
Description: (§4) FIG. 4 depicts an electrophoretic mobility shift assay (EMSA) of whole cell extracts (prepared from LNCaP and DU145 cells that were untreated (C) or treated (T) with 3 μM 2-ME for 48 h) using p53 consensus oligonucleotide as radiolabled probe. The indicated amounts (μg) of the extract was incubated with approximately 0.2 ng of labeled probe and the DNA-protein complexes were resolved by 4% non-denaturing gel electrophoresis. Unbound (F) and bound complexes (B) are indicated. Lane 1 is free probe; lane 2, 4, 6 and 8 are with 2.5 μg protein; lanes 3, 5, 7 and 9 are with 5 μg protein. Lanes 2, 3, 6 and 7 are untreated; lanes 4, 5, 8 and 9 are treated.
As shown in FIG. 4 (Electrophoretic mobility shift assay (EMSA) of extracts prepared from LNCaP and DU145 cells following treatment with 2-ME using p53 oligonucleotide probe) and FIG. 5 (Western blot analysis of extracts following 2-ME treatment with p53 antibody), the proteins from LNCaP and DU145 cells bound to the p53 consensus sequence (FIG. 4, lanes 2 and 3). […] One would expect to see induced expression of p53 following 2-ME treatment, if it is involved in mediating apoptosis.

[8] = test system: DMBA-TPA induced tumors; test: Regression of DMBA-TPA induced tumors in mice; type: in vivo, mouse; conditions: 2 mg topically twice a week for four weeks
Description: Referring to FIG. 12, after 4 weeks, animals were sacrificed and the dorsal skin was used for histology. […] In addition, topical application of 2 mg of 2-ME during tumor initiation-promotion stage inhibited hyperplasia by about 14%. […] In addition, the present inventors have treated mice that have developed the tumors using DMBA-TPA protocol with 2 mg of 2-ME topically twice a week for four weeks to see if tumors regress. During this four-week study, we have noticed that the number of tumors reduced from 10 to 8 in one animal (one such tumor is indicated by an arrow in the mouse II—see FIG. 13) and no change in the other animal.

[9] = test system: p53 in LNCaP cells; test: p53 EMSA and Western blot of whole cell extracts; type: cell-based
Description: as §4
FIG. 5 depicts a Western blot analysis of whole cell extracts from LNCaP and DU145 cells following treatment with 2-ME for 48 hours using a p53 antibody (FL-393, Santa Cruz). 25 μg of extract was fractionated on 10% denaturing gel and transferred to nitrocellulose membrane. After blocking the membrane, it was incubated for 2 hours with the p53 antibody. This was followed by incubation with horseradish peroxidase-conjugated anti-rabbit IgG antibody (Sigma) in the blocking solution. Bound antibody was detected by Supersignal West Pico Chemiluminescent Substrate, following the manufacturer's directions (Pierce, Rockford, Ill.). […]

SMILES | inhibition of cell proliferation ([1]; DU145, 2-ME 0.5 to 5 μM, monitored every 24 hours, less sensitive than LNCaP) | inhibition of cancerous cell growth [2] | pro-apoptotic effects [2] | reduction of hyperplasia ([3]; topical 2 mg 5 min before DMBA application) [%] | inhibition of hyperplasia ([3]; topical 2 mg during tumor initiation-promotion stage) | inhibition of growth ([4]; 0.5 mM of 2-ME) | inhibition of cell proliferation ([4]; 2-ME 0.5 to 5 μM, monitored every 24 hours) | endothelial cell proliferation [5] | population of cells in S phase [6] | G2/M population following treatment ([6]; untreated 23%) [%] | G1 population following treatment ([6]; untreated 71%) [%] | loss of DNA-binding activity to p53 consensus sequence (EMSA) [7] | size of the tumors [8] | number of tumors after treatment ([8]; one animal, reduced from 10) | number of tumors, other animal ([8]; other animal) | DNA-binding activity to p53 consensus sequence (EMSA) ([9]; 3 μM, 48 h) | p53 expression (Western blot) ([9]; 48 hours) | IC50 ([1]; Homo sapiens, DU-145, DU145 cells, read-out: concentration necessary for 50% inhibition of growth) [µM] | inhibition of growth ([4]; 0.25 mM of eugenol) | IC50 ([4]; Homo sapiens, read-out: concentration necessary for 50% inhibition of growth) [µM]
COc1cc2c(cc1O)CC[C@@H]1[C@@H]2CC[C@]2(C)[C@@H](O)CC[C@@H]12 [2-ME, 2-methoxyoestradiol] | dose-dependent inhibition of cell proliferation | significantly inhibits cancerous cell growth; also recorded: inhibits the growth | has pro-apoptotic effects | 26 | about 14% | about 20% | dose-dependent inhibition of cell proliferation | inhibit endothelial cell proliferation | no significant change | 46 | 46 | not as dramatic as that of LNCaP extracts | reduction in the size of the tumors | 8 | no change | lost their binding activity | decrease in its expression | – | – | –
C[C@]12CC[C@@H]3c4ccc(O)cc4CC[C@H]3[C@@H]1C[C@H](O)[C@@H]2O [16-ES, 16-epiestriol] | – | does not | – | – | – | – | – | – | – | – | – | – | – | – | – | – | – | – | – | –
C=CCc1ccc(O)c(OC)c1 [eugenol] | – | – | – | – | – | – | – | – | – | – | – | – | – | – | – | – | – | > 2000 | about 30% | ~750
